This assay has as its target Tyrosine-protein kinase BTK (Homo sapiens, UniProt Q06187). Nature of the assay: Inhibition Assay: Plates assayed are 96-well polypropylene (Greiner) and 96-well 1.2 μm hydrophilic PVDF filter plates (Millipore). Concentrations reported here are final assay concentrations: 10-100 μM compounds in DMSO (Burdick and Jackson), 5-10 nM Btk enzyme (His-tagged, full-length), 30 μM peptide substrate (Biotin-Aca-[…]-NH2), 100 μM ATP (Sigma), 8 mM imidazole (Sigma, pH 7.2), 8 mM glycerol-2-phosphate (Sigma), 200 μM EGTA (Roche Diagnostics), 1 mM MnCl2 (Sigma), 20 mM MgCl2 (Sigma), 0.1 mg/ml BSA (Sigma), 2 mM DTT (Sigma), 1 μCi 33P ATP (Amersham), 20% streptavidin sepharose beads (Amersham), 50 mM EDTA (Gibco), 2 M NaCl (Gibco), 2 M NaCl w/1% phosphoric acid (Gibco), microscint-20 (Perkin Elmer).

Tyrosine-protein kinase BTK, sequence (Q06187 whole entry): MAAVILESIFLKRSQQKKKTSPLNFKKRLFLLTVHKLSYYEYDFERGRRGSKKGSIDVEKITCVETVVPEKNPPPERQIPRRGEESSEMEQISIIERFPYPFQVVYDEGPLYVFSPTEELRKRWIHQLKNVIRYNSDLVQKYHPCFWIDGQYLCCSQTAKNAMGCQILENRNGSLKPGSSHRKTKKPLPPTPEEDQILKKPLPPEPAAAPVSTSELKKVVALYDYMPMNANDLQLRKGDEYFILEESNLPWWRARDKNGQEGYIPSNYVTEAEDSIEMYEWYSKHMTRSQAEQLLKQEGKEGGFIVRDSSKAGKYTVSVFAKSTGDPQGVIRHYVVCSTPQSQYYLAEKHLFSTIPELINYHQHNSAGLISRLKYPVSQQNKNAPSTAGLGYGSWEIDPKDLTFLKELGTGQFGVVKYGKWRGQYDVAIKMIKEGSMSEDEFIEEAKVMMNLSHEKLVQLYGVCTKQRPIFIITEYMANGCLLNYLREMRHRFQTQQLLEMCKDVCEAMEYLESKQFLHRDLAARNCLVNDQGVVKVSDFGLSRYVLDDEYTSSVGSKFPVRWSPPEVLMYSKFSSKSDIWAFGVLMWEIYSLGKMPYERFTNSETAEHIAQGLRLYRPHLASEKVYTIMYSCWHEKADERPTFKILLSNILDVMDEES

By IC50 is commonly meant the concentration needed to halve the response being measured. A low value points to inhibition by little substance. On to `CC(C)(C)c1cc(F)c2c(=O)n(-c3cccc(-n4cc(C(N)=O)c(Nc5ccc(S(C)(=O)=O)cc5)n4)c3CO)ncc2c1`, for which the IC50 is 0.09 nM.

Source of the values: ChEMBL document CHEMBL3639151, “Inhibitors of bruton's tyrosine kinase” (2014).
